# Experimental data from PMC12114195, “Synthesis, Experimental and Computational Evaluation of SERAAK1 as a 5-HT2A Receptor Ligand” (Molecules, 2025).
# Columns and labels:
# CYP2D6 = CYP2D6 (Homo sapiens, UniProt P10635); experiment: CYP2D6 P450 Glo luminescent assay; settings: for inhibition at 10 µM: human
# Method: (§1) Luminescence-based CYP3A4 P450 Glo and CYP2D6 P450 Glo kits (Promega, Madison, WI, USA) were used to assess the impact of SERAAK1 on the activity of two distinct cytochrome P450 isoforms. These assays were performed according to the protocol of the manufacturer and in alignment with the previously described methods. Each assay was performed twice in triplicate. Luminescence signals were measured using a Spark microplate reader (Tecan, Männedorf, Zürich, Switzerland).
# CYP3A4 = target: T1, CYP3A4 (Homo sapiens, UniProt P08684); experiment: CYP3A4 P450 Glo luminescent assay; type: in vitro ADME
# T1 construct: purchased Promega
# Method: Briefly, the effect of SERAAK1 on CYP3A was determined using a luminescent luciferase-based assay. A 10 µM concentration of the compound was tested in two experiments, each with three replicates.
# as §1
# HepG2 cells = experiment: MTS cytotoxicity assay, HepG2; type: cell-based, human; settings: 72 h
# Method: (§2) The cytotoxic properties of SERAAK1 were tested in two human cell lines, selected based on their relevance to the study objectives—the HepG2 and SH-SY5Y. Figure 7 and Figure 8 depict the results obtained in the cytotoxicity assays performed using the MTS.
# (§3) The cytotoxic effect of SERAAK1 was evaluated using the colorimetric MTS assay. The study was conducted on HepG2 and SH-SY5Y cell lines, following the same protocol. Cell lines were obtained from the American Type Culture Collection (Manassas, VA, USA) and maintained under standard conditions (5% CO2, 37 °C) in DMEM/F12 medium (#31330-038, ThermoFisher Scientific, Waltham, MA, USA), supplemented with 10% FBS (#A5256801, ThermoFisher Scientific) and Penicillin-Streptomycin (#15140-122, ThermoFisher Scientific) until used in the experiment. Cells at passage numbers between 15 and 25 were seeded in 96-well plates at the concentration of 5000 cells/well in 200 μL of medium and incubated for 24 h at 37 °C with 5% CO2. […] Subsequently, plates were incubated at 37 °C, and absorbance was measured using a Spark microplate reader after 1 h for HepG2 and 3 h for SH-SY5Y. Final cell viability was calculated relative to control wells (100% viability) and wells with 10 μM doxorubicin (0% viability). […]
# SH-SY5Y cells = experiment: MTS cytotoxicity assay, SH-SY5Y; type: cell-based, human; settings: 72 h
# Method: as §2, §3
# [1] = PAMPA passive permeability; type: in vitro ADME; settings: for Papp at 5 h, 100 μM: PBS pH 7.4, 5 h, read-out: Pe ± SD
# Method: The PAMPA assay was utilized to evaluate the ability of SERAAK1 to passively diffuse through a lipid-infused artificial membrane. The results, gathered in Table 3, were expressed as permeability coefficient Pe, calculated according to the formulas described elsewhere.
# The pre-coated PAMPA Plate System Gentest from Corning (Tewksbury, MA, USA) was used in experiments using the instructions of the manufacturer. SERAAK1 and reference compounds were diluted in the PBS buffer (pH 7.4) to the final concentration of 100 μM and placed on the 96-well donor microplate. The exact quantity of molecules that successfully penetrated from donor to acceptor wells through the phospholipid membrane was estimated after 5 h of incubation using UPLC-MS spectrometry (Waters ACQUITY™ TQD system with the TQ Detector, Waters, Milford, CT, USA). The final permeability coefficient (Pe, cm/s) calculation was performed using the formula provided by the vendor of the PAMPA Plate System.
# mice [2] = experiment: Spontaneous locomotor activity; type: in vivo; settings: 30 and 60 mg/kg i.p., 60 min before the test, one-way ANOVA
# Method: Spontaneous locomotor activity is a meaningful parameter helping to understand the physical and mental status of laboratory animals, providing insights into general activity levels, arousal and potential sedative or stimulant effects of administered substances. We measured the distance traveled by the mice during the 20 min observation period.
# (§4) The investigated compound (SERAAK1) in all tests was administered intraperitoneally (i.p.), spread in a drop of Tween 80, diluted by an aqueous solution of 0.5% methylcellulose (tylose) and injected 60 min before the tests in a volume of 10 mL/kg. Initial doses of the compound were selected based on available literature and our earlier studies. Control groups received tylose injections of the same volume and via the same route of administration.
# (§5) All experiments were conducted on a 6-week-old naïve male Swiss mice weighing 24–30 g in the Experimental Medicine Center, Medical University of Lublin, Poland. […]
# (§6) The automatic device—actimeter Opto-Varimex-4 Auto-Track (Columbus Instruments, Columbus, OH, USA)—was used to measure the locomotor activity of experimental animals. The mice were individually placed in cages for 25 min: the first 5 min for acclimatization and then the next 20 min for observation while the distance (in centimeters) traveled during this time was measured. […]
# mice [3] = experiment: Chimney test (motor coordination); type: in vivo; settings: 30 mg/kg and 60 mg/kg i.p., 60 min after administration
# Method: (§7) This conclusion was supported by results from two widely used behavioral tests: the chimney test (Figure 10) and the rotarod test (Figure 11), conducted 60 min after the substance administration. In the chimney test, we measured the time it took the mice to exit the chimney, and in the second test, the time the animals stayed on the rod rotating at a constant speed of 18 rpm.
# as §4
# (§8) All experiments were conducted on a 6-week-old naïve male Swiss mice weighing 24–30 g in the Experimental Medicine Center, Medical University of Lublin, Poland. The animals were housed (four/five per cage) under standard laboratory conditions (room temperature of 22 ± 1 °C and a relative humidity of 50–60% during a 12/12 h light-dark cycle, lights on at 8:00). […]
# (§9) The effects of SERAAK1 were also measured in the rotarod and chimney tests. In the first test, the ability of mice to balance on a rotating rod (18 rpm, constantly) was assessed for 1 min. […]
# mice [4] = experiment: Rotarod test (motor coordination); type: in vivo; settings: 30 mg/kg and 60 mg/kg i.p., 60 min after administration
# Method: as §7, §4, §8, §9
# mice [5] = experiment: Elevated plus maze test (EPM); type: in vivo; settings: 30 mg/kg i.p.
# Method: The effect of SERAAK1 on anxiety-like behavior in mice was assessed using the elevated plus maze test (EPM). In this test we measured three parameters: time spent in the open arms of the maze, the number of entries into the open arms—expressed as a percentage of the time spent/entries in both types of maze arms and the total number of entries into the open and closed arms of the maze, which is an additional measure of the animals’ locomotor activity. The anxiolytic activity of mice after SERAAK1 administration was expressed as the percentage of time spent in the open arms of the maze and the number of entries into these arms. Statistical analysis with a t-test indicated a significant influence of acute administration of SERAAK1 (30 mg/kg) on anxiety responses.
# as §4
# as §8, with “8:00). The animals had free access to laboratory food—pellet diet (LSM, Agropol Motycz, Marynin, Poland) and tap water—except for the short time when they were removed from the cages for testing.” for “8:00).”
# Anxiety behaviors were measured using the EPM test according to the Lister method. […] The time spent in the EPM open arms, the number of entries into the open arms, and the total number of entries into both types of arms were measured.
# mice [6] = experiment: Forced swim test (FST); type: in vivo; settings: 30 mg/kg i.p., 60 min before the test, vs control, p < 0.01
# Method: The forced swim test (FST) is commonly used in rodent laboratory models to assess the efficacy of a potential antidepressant drug in alleviating or preventing depressive-like states. In the FST, we estimated the immobility time of animals, illustrating it […]. In this study, a t-test was used to assess the statistically significant effect of acute administration of SERAAK1 (30 mg/kg) on mice behavior in the FST.
# as §4, §5
# The study was carried out using the test proposed by R. Porsolt. […] The immobility time, considered as the state in which the mouse performs only those movements necessary to keep its head above the water, is measured between 2 and 6 min.
# mice [7] = experiment: Amphetamine-induced hyperactivity; type: in vivo
# Method: In this test, we measured the distance traveled by the mice during the 20 min observation period. […] Pretreatment concerns the administration of amphetamine, and treatment concerns the tested compound.
# as §4, §8, §6
# 5-HT2A receptor [8] = target: 5-HT2A receptor; set-up: method as in PMID 38619283; settings: radioligand binding; cited from earlier work
# 5-HT1A receptor = target: 5-HT1A receptor; set-up: method as in PMID 38619283; settings: radioligand binding; cited from earlier work
# D2 receptor = target: D2 receptor; set-up: method as in PMID 38619283; settings: radioligand binding; cited from earlier work
# 5-HT2A receptor [9] = target: 5-HT2A receptor; set-up: method as in PMID 38619283; settings: functional studies; read-out: Kb, antagonist of the 5-HT2A receptor; cited from earlier work
# [10] = 30 µM (highest concentration tested)
# [11] = 60 min before the test, vs control, p < 0.001
# Chain of CYP2D6 (P10635 whole entry, canonical isoform): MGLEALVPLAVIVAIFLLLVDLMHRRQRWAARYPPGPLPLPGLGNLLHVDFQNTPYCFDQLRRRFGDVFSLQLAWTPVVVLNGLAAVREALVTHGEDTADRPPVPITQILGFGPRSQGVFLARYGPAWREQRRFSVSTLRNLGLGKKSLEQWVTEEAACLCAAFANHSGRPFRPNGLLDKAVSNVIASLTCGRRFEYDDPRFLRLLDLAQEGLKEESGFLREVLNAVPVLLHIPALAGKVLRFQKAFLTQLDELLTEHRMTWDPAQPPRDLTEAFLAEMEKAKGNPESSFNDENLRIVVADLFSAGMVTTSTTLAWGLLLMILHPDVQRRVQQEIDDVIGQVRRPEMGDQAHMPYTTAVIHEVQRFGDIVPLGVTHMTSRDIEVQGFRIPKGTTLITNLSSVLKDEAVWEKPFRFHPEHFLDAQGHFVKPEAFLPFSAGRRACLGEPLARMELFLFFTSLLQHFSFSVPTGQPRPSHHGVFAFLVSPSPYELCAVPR
# T1 sequence (P08684 whole entry): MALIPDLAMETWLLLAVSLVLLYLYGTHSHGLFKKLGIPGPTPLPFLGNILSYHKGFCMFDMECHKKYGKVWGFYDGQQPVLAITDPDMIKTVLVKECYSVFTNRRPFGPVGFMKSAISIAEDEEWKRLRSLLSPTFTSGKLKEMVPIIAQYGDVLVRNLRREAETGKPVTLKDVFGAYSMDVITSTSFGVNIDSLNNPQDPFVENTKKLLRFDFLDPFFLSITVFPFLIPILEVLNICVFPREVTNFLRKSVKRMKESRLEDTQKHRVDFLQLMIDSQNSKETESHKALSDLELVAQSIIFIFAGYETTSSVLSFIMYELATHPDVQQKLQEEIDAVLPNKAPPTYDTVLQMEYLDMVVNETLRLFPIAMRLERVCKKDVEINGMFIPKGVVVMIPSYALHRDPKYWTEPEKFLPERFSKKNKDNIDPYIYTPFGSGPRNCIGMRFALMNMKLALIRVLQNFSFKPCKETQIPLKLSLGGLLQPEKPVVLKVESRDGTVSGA
smiles,measurement,setting,value
"C=C[C@H]1C[N@@]2CC[C@H]1C[C@@H]2[C@@H](O)c1ccnc2ccc(OC)cc12 [Quinidine, reference compound]",inhibition at 10 µM,CYP2D6; CYP2D6 P450 Glo kit (Promega),100 ± 1%
"OC(COC(c1ccccc1)c1ccccc1)CN1CCN(C(c2ccccc2)c2ccccc2)CC1 (stereo not shown) [SERAAK1, 1-(benzhydryloxy)-3-(4-benzhydrylpiperazin-1-yl)propan-2-ol]","CYP3A4 induction, dose-response","CYP3A4; concentrations > 100 nM, up to 10 µM",induce CYP3A4 in a dose-dependent manner
same,inhibition at 10 µM,"CYP3A4; human, CYP3A4 P450 Glo kit (Promega), 10 µM, a negative value indicates a stimulating effect, read-out: CYP3A4 Activity Inhibition, Evaluated in the Concentration of 10 µM [% of Inhibition ± SEM]",-352 ± 9%
same,CYP2D6 inhibition concentration range (IC50),CYP2D6,submicromolar
same,inhibition at 10 µM,CYP2D6,95 ± 1%
same,Toxic influence on HepG2 cells at lower concentrations,"HepG2 cells; 0.3 µM, 3 µM",no toxic influence
same,"% inhibition of cell proliferation (cytotoxic effect), HepG2",HepG2 cells; [10],84 ± 3%
same,Toxic influence on SH-SY5Y cells at lower concentrations,"SH-SY5Y cells; 0.3 µM, 3 µM",no toxic influence
same,"% inhibition of cell proliferation, SH-SY5Y",SH-SY5Y cells; [10],50 ± 5%
same,Passive permeation through the lipid bilayer,[1],did not permeate passively
same,"Papp at 5 h, 100 μM",[1],< 0.01 ×10⁻⁶ cm/s
same,Spontaneous locomotor activity (distance traveled in 20 min),mice [2],did not show any significant changes
same,"Motor coordination, chimney test (time to exit the chimney)",mice [3],did not reveal any statistically significant effects
same,"Motor coordination, rotarod test (time on the rod, 18 rpm)",mice [4],did not reveal any statistically significant effects
same,"Total arm entries, overall mobility (EPM)",mice [5],did not change the overall mobility
same,Increase in percentage of open arm entries (EPM),mice [5]; [11],19.34%
same,Increase in percentage of time spent on the open arms (EPM),mice [5]; [11],12.9%
same,Reduction in immobility time (FST),mice [6],29.2%
same,Decrease of amphetamine-induced hyperactivity (distance traveled in 20 min),"mice [7]; 30 mg/kg with amphetamine (5 mg/kg), vs amphetamine-treated group, p < 0.05",22.15%
same,Ki,5-HT2A receptor [8],826 ± 51 nM
same,Ki,5-HT1A receptor,1420 ± 108 nM
same,Ki,D2 receptor,1290 ± 323 nM
same,Kb,5-HT2A receptor [9],462 nM
"CCN1CCCC1CNC(=O)c1cc(S(N)(=O)=O)ccc1OC (stereo not shown) [Sulpiride, reference compound]","Papp at 5 h, 100 μM",[1],0.011 ± 0.002 ×10⁻⁶ cm/s
"CC(N)Cc1ccccc1 (stereo not shown) [amphetamine, reference compound]",Locomotor activity (distance traveled) vs saline-treated group,"mice [7]; amphetamine alone, p < 0.001",increased the locomotor activity
